From patent publication US7524490B2, “Clusterin-mediated inhibition of apoptosis via stromal bone marrow cell delivery to a cardiac site” (Board of Regents of the University of Texas System, priority 2004, dated 2009)

Columns and labels:
[1] = system: vascular smooth muscle cells; assay: Oxysterol-induced internucleosomal DNA fragmentation and apoptosis in vascular smooth muscle cells; type: cell-based
Excerpt: FIG. 11 is an ethedium bromide-stained agarose gel loaded with DNA samples extracted from clusterin-transfected or non-transfected vascular smooth muscle cells.
Detection of apoptotic cells. Determination of apoptosis needs a combination of techniques in morphology and biochemistry. Apoptosis was detected using the following six techniques: 1) Light microscopy; 2) Fluorescent confocal scanning or non-confocal microscopy, 3). In situ labeling of DNA 3′ ends (TUNEL technique), 4) Electron microscopy, 5) DNA agarose gel electrophoresis, and 6) Flow cytometry. These techniques are describe more particularly as follows: 1) Light microscopy was applied routinely to analyze morphological changes of vascular cells. 2) Fluorescent confocal scanning or non-confocal microscopy was used to characterize cytoskeletal and nuclear alterations after immunofluorescent staining. DAPI or Hoechst dye was used for nuclear morphology under UV excitation. 3). […] The signal of TdT-mediated dUTP nick end labeling (TUNEL) was detected by an anti-digoxigenin antibody conjugated with peroxidase, a reporter enzyme which catalytically generates a brown color product from the chromogenic substrate diaminobenzidine. […] DNA was precipitated in ethanol, and analyzed for fragmentation by 2% agarose gel electrophoresis with ethidium bromide. […] In this study, cell proliferation and apoptosis were analyzed by flow cytometry. […]

KG-293 cells = assay: TNF-α-induced apoptosis in KG-293 cells with tetracycline-induced intracellular clusterin; type: cell-based, human
Excerpt: Transfection with clusterin cDNA. Initially a plasmid was constructed that contains a truncated form of clusterin cDNA with deletion of the sequence responsible for cross-membrane transport. Transfection of human embryonic 293 cell line with this plasmid leads to intracellular overexpression of a non-secreted form of clusterin. The clusterin gene is under control of a CMV promoter with tetracycline-sensitive elements. […] This plasmid will be used to deliver the truncated clusterin gene into stem cells. The cells will be selected using G418 as the plasmid contains a neomycin-resistant gene.
A plasmid pKS7 that contains a truncated clusterin cDNA with deletion of the transmembrane domain and a neomycin-resistant gene was constructed. The truncated clusterin gene was under regulation by a CMV promoter with tetracycline-responding elements. Stable transfection of the human embryonic kidney cell line T-293 with pKS7 generates a stable cell line (KG-293) with clusterin overexpressed. As shown by Western blot, under stimulation with tetracycline (1 μg/ml) for 24 hours, KG-293 cells but not their precursors, T-293 cells, produced an intracellular form of clusterin at much higher levels (FIG. 7A). […] KG-293 cells overexpressing the intracellular form of clusterin also underwent dramatic alterations in morphology and proliferation. […]

[2] = Dot blotting of clusterin binding to filter-coated lipids; parameters: species or system mouse; details: 10 μg/well serum proteins from TG and WT mice, 30 min, room temperature; anti-clusterin detection
Experimental: As a component of HDL, clusterin helps transport cholesterol crossing the cellular membrane. In atherosclerotic lesions, cholesterol-derived oxysterols accumulate and exert apoptotic effects on vascular cells. Usually, the cytotoxicity of oxysterols including 7-ketocholesterol is much greater than that of free cholesterol. […] Free cholesterol and 7-ketocholesterol dissolved in ethanol were loaded to a filter in a 96-well dot blotting device. 10 μg/well proteins from three TG and WT serum samples were incubated in the wells for 30 min at room temperate. After washing with PBS, the filter was incubated with anti-clusterin antibody (1:200), and then anti-goat IgG conjugated with peroxidase. The dot blotting was developed using an ECL kit. Furthermore, an increased binding activity to the oxysterol in the serum from clusterin transgenic mice, compared to these in wild type mouse serum (FIG. 10), was detected. Thus, clusterin appears to have a higher affinity to some oxidized cholesterol derivatives.

[3] = system: aldehyde dehydrogenase-1 (ALDH-1); assay: Induction of aldehyde dehydrogenase expression in smooth muscle cells (immunoblot); type: cell-based, murine; details: recombinant human clusterin 0, 5, 25, 50 μg/ml; concentration-dependent
Experimental: FIG. 13 is an immunoblot showing induction of aldehyde dehydrogenase-1 (ALDH-1) in murine vascular smooth muscle cells by treatment with recombinant human clusterin (apoJ) at different concentrations (lane 1, 0 μg/ml; lane 2, 5 μg/ml; lane 3, 25 μg/ml; lane 4, 50 μg/ml).
Aldehyde dehydrogenase expression and vitamin A metabolism were investigated to determine whether clusterin exerts its protective effect through upregulation of genes involved in cellular detoxification. Aldehyde dehydrogenases (ALDHs) are a group of intracellular enzymes that mediate NAD-coupled oxidation of aldehydes to carboxylic acids. ALDH is probably most widely known for its role in clearance of acetaldehyde from beverage alcohol by conversion to acetic acid. This enzymes is also involved in retinol metabolism and mediates vitamin A function. Members of the ALDH family are diversed; some have broad substrate specificities (ALDH1 and ALDH2) and other ALDHs are tailored to specific reactions of intermediary metabolism (e.g., methyl malonic semialdehyde dehydrogenase in branched-chain amino acid metabolism). ALDH1 is primarily found in the liver and in adult stem cells including hematopoietic stem cells. […]

stem cells = assay: Clusterin pretreatment of stem cells in serum-free conditioned medium; type: cell-based, mouse; details: 20-30 μg/ml clusterin, 24 hours, preliminary data
Experimental: Stem cell culture and treatment with oxysterols and cytokines. Mouse stem cells were used in this in vitro study. Two groups of proapoptotic agents were used to induce apoptosis of stem cells: oxysterols and cytokines. In group 1, stem cells were treated with 7-ketocholesterol (7-KC) and 25-OH-cholesterol (25-OH—C), two oxysterols known to exist in abundantly in atherosclerotic lesions and to induce apoptosis in cardiovascular cells. Free cholesterol was used as controls. In group 2, stem cells were incubated with a combination of tumor necrosis factor (TNF)-α and interferon (IFN)-γ, two cytokines previously shown to induce apoptosis of stem cells. In addition, to determine whether the Fas death-signaling pathway is involved in apoptosis of stem cells, stem cells were treated with recombinant Fas ligand in the presence of IFN-γ.
Clusterin treatment. In order to determine whether clusterin prevents apoptosis of stem cells, stem cells were pretreated with clusterin purified from serum or synthesized by use of recombinant technology. Stem cells were cultured in a serum-free, conditioned medium supplemented with 20-30 μg/ml clusterin for 24 hours. The preliminary data indicated no apoptosis under the culture condition with clusterin. […] Cells were analyzed for apoptosis using the following methods after treatment. […]

[4] = system: murine cardiac stem cells; assay: Apoptosis of cardiac stem cells induced by serum starvation, with or without clusterin; type: cell-based, mouse; details: clusterin-containing DMEM medium, many cells died without clusterin
Experimental: Treatment of stem cells in culture. An in vitro system was first employed to examine the protective effects of clusterin on stem cells. Stem cells were treated with clusterin at different concentrations in the cultures with or without proinflammatory cytokines or T lymphocytes pre-activated by mitogens. After 2-4 days of stimulation, cell survival and apoptosis were examined using a combination of techniques including flow cytometry, fluorescent microscopy, and radioactive isotope labeling, as described below. Control experiments were set up using other types of proteins, such as bovine albumin.
Detection of apoptotic cells. Determination of apoptosis needs a combination of techniques in morphology and biochemistry. Apoptosis was detected using the following six techniques: 1) Light microscopy; 2) Fluorescent confocal scanning or non-confocal microscopy, 3). […] The signal of TdT-mediated dUTP nick end labeling (TUNEL) was detected by an anti-digoxigenin antibody conjugated with peroxidase, a reporter enzyme which catalytically generates a brown color product from the chromogenic substrate diaminobenzidine. […] DNA was precipitated in ethanol, and analyzed for fragmentation by 2% agarose gel electrophoresis with ethidium bromide. […] In this study, cell proliferation and apoptosis were analyzed by flow cytometry. […]

**Q.** With `CC(C)CCC[C@@H](C)[C@H]1CC[C@H]2[C@@H]3C(=O)C=C4C[C@@H](O)CC[C@]4(C)[C@H]3CC[C@]12C` [7-ketocholesterol, reference compound] as the compound, how does the “induction of apoptosis of vascular smooth muscle cells (internucleosomal DNA fragmentation)” value ([1]; exposure to oxysterol) read?
**A.** The value was “can trigger apoptosis”.

**Q.** With TNF-α [reference compound] as the compound, how does the “induction of apoptosis in control KG-293 cells” value (KG-293 cells; TNF-α 10 ng/ml for 24 and 48 hours, cells not exposed to tetracycline) read?
**A.** The value was “markedly induced apoptosis”.

**Q.** Which results are given for “clusterin: sulfated, heterodimeric glycoprotein containing two 40 kDa chains joined by a five disulfide bond motif; native or recombinant”?
**A.** binding to 7-ketocholesterol versus free cholesterol (dot blot intensity) [2]: much higher intensities than free cholesterol; expression of ALDH in smooth muscle cells [3]: significantly induced expression of ALDH; effect on the pro-apoptotic effect of TNF-α (KG-293 cells; KG-293 cells with intracellular overexpression of truncated clusterin (pKS7, tetracycline 1 μg/ml)): significantly attenuated; apoptosis of stem cells under culture condition with clusterin (stem cells): no apoptosis; apoptosis of cardiac stem cells (morphology, acridine orange/ethidium bromide staining) [4]: no sign of apoptosis; effect on oxysterol-induced DNA fragmentation and apoptosis in vascular cells ([1]; overexpression of clusterin by cDNA transfection): markedly reduces the DNA fragmentation and apoptosis
